The kinase profiling compilation of Christmann-Franck et al. (2016)

What was measured:
ACVR2A (human) = ACVR2A (human) (UniProt P27037); assay: KINOMEscan competition binding; conditions: compound 10.0 µM
ADCK4 (human) = ADCK4 (human) (UniProt Q96D53); assay: KINOMEscan competition binding; conditions: compound 10.0 µM
AKT3 (human) = AKT3 (human) (UniProt Q9Y243); assay: KINOMEscan competition binding; conditions: compound 10.0 µM
BRSK2 (human) = BRSK2 (human) (UniProt Q8IWQ3); assay: KINOMEscan competition binding; conditions: compound 10.0 µM
Sequence of BRSK2 (human) (Q8IWQ3 whole entry, looked up): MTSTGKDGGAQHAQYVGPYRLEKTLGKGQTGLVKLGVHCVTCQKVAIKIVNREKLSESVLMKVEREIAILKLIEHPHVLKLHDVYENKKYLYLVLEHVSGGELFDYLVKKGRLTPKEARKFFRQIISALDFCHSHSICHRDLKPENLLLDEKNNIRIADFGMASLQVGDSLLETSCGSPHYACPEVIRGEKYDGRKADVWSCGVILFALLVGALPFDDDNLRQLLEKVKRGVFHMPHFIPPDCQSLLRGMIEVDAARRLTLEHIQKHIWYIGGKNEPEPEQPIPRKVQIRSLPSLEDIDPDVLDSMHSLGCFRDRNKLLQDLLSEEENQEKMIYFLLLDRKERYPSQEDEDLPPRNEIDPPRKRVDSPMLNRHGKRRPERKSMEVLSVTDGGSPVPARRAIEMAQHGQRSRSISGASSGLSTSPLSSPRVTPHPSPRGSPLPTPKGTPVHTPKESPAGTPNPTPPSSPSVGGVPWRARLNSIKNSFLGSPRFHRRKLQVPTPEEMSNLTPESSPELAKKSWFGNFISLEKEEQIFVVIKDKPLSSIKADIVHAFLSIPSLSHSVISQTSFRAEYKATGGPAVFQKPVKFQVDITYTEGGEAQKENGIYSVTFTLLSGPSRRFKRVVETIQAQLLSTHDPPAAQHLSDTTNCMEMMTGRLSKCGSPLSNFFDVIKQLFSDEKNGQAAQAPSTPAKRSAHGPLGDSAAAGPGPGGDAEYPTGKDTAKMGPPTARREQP

CSNK1E (human) = CSNK1E (human) (UniProt P49674); assay: KINOMEscan competition binding; conditions: compound 10.0 µM
CSNK1G2 (human) = CSNK1G2 (human) (UniProt P78368); assay: KINOMEscan competition binding; conditions: compound 10.0 µM
DCLK1 (human) = DCLK1 (human) (UniProt O15075); assay: KINOMEscan competition binding
Sequence of DCLK1 (human) (O15075 whole entry, looked up): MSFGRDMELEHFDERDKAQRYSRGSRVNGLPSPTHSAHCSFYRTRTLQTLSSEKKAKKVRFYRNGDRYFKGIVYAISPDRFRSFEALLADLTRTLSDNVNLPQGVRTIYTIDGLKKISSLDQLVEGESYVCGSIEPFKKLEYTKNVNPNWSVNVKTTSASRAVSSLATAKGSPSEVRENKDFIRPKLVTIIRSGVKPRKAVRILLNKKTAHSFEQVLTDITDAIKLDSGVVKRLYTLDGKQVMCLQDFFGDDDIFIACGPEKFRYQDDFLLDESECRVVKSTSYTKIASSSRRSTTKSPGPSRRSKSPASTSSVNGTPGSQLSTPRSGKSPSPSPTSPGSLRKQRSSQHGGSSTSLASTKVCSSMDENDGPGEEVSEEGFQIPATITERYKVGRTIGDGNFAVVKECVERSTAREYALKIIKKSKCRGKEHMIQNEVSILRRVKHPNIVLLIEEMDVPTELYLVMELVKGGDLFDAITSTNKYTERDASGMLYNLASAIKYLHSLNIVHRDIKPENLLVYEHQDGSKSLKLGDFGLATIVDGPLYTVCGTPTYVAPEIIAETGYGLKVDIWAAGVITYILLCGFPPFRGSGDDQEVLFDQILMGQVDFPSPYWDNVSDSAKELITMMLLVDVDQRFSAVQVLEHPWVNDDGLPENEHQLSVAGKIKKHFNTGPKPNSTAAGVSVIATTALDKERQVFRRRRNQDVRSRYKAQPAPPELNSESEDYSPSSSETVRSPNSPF

DYRK1B (human) = DYRK1B (human) (UniProt Q9Y463); assay: KINOMEscan competition binding; conditions: compound 10.0 µM
DYRK2 (human) = DYRK2 (human) (UniProt Q92630); assay: KINOMEscan competition binding; conditions: compound 10.0 µM
[1] = tested on: EGFR (human), P00533 [P753S; 747-752 del]; assay: KINOMEscan competition binding; conditions: compound 10.0 µM
EPHA3 (human) = EPHA3 (human) (UniProt P29320); assay: KINOMEscan competition binding; conditions: compound 10.0 µM
EPHB1 (human) = EPHB1 (human) (UniProt P54762); assay: KINOMEscan competition binding; conditions: compound 10.0 µM
[2] = tested on: FLT3 (human), P36888 [N841I]; assay: KINOMEscan competition binding; conditions: compound 10.0 µM
INSRR (human) = INSRR (human) (UniProt P14616); assay: KINOMEscan competition binding; conditions: compound 10.0 µM
ITK (human) = ITK (human) (UniProt Q08881); assay: KINOMEscan competition binding; conditions: compound 10.0 µM
[3] = molecular target: JAK2 JH1 catalytic (human) (UniProt O60674); assay: KINOMEscan competition binding; conditions: compound 10.0 µM
MAP4K1 (human) = MAP4K1 (human) (UniProt Q92918); assay: KINOMEscan competition binding; conditions: compound 10.0 µM
MAPK12 (human) = MAPK12 (human) (UniProt P53778); assay: KINOMEscan competition binding; conditions: compound 10.0 µM
MARK1 (human) = MARK1 (human) (UniProt Q9P0L2); assay: KINOMEscan competition binding; conditions: compound 10.0 µM
MYLK4 (human) = MYLK4 (human) (UniProt Q86YV6); assay: KINOMEscan competition binding; conditions: compound 10.0 µM
Sequence of MYLK4 (human) (Q86YV6 whole entry, looked up): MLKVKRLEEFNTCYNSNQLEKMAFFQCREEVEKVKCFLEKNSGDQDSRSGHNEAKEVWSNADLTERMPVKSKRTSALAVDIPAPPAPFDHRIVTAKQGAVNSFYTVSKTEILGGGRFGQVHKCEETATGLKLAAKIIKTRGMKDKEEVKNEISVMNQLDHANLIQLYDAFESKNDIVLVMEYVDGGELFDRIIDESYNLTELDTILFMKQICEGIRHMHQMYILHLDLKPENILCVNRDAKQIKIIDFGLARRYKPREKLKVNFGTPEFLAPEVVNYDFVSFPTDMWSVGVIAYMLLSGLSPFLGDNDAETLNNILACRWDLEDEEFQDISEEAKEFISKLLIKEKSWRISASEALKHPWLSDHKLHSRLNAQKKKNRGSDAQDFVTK

NIM1 (human) = NIM1 (human) (UniProt Q8IY84); assay: KINOMEscan competition binding; conditions: compound 10.0 µM
PAK1 (human) = PAK1 (human) (UniProt Q13153); assay: KINOMEscan competition binding; conditions: compound 10.0 µM
PAK7 (human) = PAK7 (human) (UniProt Q9P286); assay: KINOMEscan competition binding; conditions: compound 10.0 µM
Sequence of PAK7 (human) (Q9P286 whole entry, looked up): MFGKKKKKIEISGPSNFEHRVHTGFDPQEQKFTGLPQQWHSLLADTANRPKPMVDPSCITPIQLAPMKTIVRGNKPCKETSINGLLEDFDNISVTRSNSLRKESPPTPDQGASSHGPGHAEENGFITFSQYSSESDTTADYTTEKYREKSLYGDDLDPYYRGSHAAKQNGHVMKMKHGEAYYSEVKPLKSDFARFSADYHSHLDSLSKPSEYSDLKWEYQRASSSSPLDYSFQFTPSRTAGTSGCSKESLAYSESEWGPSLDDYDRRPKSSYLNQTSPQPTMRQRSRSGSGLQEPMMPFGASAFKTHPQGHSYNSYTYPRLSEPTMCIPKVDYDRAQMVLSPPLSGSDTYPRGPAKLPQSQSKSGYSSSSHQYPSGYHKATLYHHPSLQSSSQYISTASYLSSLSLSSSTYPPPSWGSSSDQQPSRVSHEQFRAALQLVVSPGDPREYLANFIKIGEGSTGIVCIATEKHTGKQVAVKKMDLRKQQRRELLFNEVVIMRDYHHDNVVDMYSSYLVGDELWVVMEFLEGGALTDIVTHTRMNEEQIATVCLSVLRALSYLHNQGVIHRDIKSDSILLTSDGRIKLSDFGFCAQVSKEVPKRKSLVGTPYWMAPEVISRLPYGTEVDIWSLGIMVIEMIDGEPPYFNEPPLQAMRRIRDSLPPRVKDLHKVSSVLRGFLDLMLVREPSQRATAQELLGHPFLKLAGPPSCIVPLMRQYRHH

PKN1 (human) = PKN1 (human) (UniProt Q16512); assay: KINOMEscan competition binding; conditions: compound 10.0 µM
RIOK2 (human) = RIOK2 (human) (UniProt Q9BVS4); assay: KINOMEscan competition binding; conditions: compound 10.0 µM
ROCK2 (human) = ROCK2 (human) (UniProt O75116); assay: KINOMEscan competition binding; conditions: compound 10.0 µM
ROS1 (human) = ROS1 (human) (UniProt P08922); assay: KINOMEscan competition binding; conditions: compound 10.0 µM
SRPK1 (human) = SRPK1 (human) (UniProt Q96SB4); assay: KINOMEscan competition binding; conditions: compound 10.0 µM
Sequence of SRPK1 (human) (Q96SB4 whole entry, looked up): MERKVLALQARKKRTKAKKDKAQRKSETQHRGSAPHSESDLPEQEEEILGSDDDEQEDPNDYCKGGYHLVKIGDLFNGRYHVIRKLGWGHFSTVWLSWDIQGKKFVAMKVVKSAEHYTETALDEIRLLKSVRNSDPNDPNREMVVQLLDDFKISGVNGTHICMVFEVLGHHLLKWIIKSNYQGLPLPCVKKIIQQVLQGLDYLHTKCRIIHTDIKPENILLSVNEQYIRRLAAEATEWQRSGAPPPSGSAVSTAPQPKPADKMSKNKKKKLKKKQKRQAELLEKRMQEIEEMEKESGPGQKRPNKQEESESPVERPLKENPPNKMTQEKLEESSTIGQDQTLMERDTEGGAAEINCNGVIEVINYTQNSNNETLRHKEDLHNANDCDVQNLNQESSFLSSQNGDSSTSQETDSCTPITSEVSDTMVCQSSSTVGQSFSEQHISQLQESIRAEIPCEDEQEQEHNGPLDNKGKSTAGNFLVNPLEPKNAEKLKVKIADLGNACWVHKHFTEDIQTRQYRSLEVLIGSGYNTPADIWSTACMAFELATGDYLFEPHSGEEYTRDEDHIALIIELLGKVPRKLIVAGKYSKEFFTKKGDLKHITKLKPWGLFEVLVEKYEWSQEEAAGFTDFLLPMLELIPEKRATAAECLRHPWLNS

SRPK3 (human) = SRPK3 (human) (UniProt Q9UPE1); assay: KINOMEscan competition binding; conditions: compound 10.0 µM
TNK1 (human) = TNK1 (human) (UniProt Q13470); assay: KINOMEscan competition binding
Sequence of TNK1 (human) (Q13470 whole entry, looked up): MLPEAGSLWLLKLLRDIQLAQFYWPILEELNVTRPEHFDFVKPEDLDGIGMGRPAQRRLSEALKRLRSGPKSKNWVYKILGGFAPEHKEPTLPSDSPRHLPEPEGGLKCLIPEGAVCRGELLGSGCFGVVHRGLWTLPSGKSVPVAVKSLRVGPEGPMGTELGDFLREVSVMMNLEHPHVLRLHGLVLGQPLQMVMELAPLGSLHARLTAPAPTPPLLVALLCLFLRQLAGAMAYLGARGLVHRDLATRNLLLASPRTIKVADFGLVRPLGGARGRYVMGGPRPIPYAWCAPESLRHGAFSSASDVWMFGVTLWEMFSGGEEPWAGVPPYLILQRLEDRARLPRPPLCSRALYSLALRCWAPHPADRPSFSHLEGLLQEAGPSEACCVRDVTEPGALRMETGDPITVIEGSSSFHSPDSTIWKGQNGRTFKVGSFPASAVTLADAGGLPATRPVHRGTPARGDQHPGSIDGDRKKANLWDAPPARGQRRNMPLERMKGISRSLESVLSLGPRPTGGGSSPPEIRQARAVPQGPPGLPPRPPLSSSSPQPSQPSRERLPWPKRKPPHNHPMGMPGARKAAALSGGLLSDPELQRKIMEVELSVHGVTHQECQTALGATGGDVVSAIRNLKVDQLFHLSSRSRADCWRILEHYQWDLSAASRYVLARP

TNNI3K (human) = TNNI3K (human) (UniProt Q59H18); assay: KINOMEscan competition binding; conditions: compound 10.0 µM
WEE1 (human) = WEE1 (human) (UniProt P30291); assay: KINOMEscan competition binding; conditions: compound 10.0 µM
AURKA (human) = AURKA (human) (UniProt O14965); assay: SelectScreen, TR FRET
AURKB (human) = AURKB (human) (UniProt Q96GD4); assay: SelectScreen, TR FRET
CHEK2 (human) = CHEK2 (human) (UniProt O96017); assay: SelectScreen, TR FRET
DCLK2 (human) = DCLK2 (human) (UniProt Q8N568); assay: SelectScreen, TR FRET
LRRK2 (human) = LRRK2 (human) (UniProt Q5S007); assay: SelectScreen, TR FRET
MKNK2 (human) = MKNK2 (human) (UniProt Q9HBH9); assay: SelectScreen, TR FRET
MYLK (human) = MYLK (human) (UniProt Q15746); assay: SelectScreen, TR FRET
NUAK1 (human) = NUAK1 (human) (UniProt O60285); assay: SelectScreen, TR FRET
PLK1 (human) = PLK1 (human) (UniProt P53350); assay: SelectScreen, TR FRET

Sequence of ACVR2A (human) (P27037 whole entry, looked up): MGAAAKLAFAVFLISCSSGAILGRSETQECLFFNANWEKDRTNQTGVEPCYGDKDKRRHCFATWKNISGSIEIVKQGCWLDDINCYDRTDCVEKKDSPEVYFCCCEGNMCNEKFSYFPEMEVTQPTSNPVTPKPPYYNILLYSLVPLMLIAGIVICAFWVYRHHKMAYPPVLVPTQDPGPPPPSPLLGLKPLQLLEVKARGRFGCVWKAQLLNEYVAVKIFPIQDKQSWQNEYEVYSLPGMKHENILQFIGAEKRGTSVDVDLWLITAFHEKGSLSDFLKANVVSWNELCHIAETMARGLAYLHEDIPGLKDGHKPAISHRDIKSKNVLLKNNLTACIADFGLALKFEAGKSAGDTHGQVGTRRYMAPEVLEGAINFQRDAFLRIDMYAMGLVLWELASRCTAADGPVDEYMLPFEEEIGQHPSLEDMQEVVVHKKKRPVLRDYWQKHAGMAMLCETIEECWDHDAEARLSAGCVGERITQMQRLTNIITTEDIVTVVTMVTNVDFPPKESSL
Sequence of AKT3 (human) (Q9Y243 whole entry, looked up): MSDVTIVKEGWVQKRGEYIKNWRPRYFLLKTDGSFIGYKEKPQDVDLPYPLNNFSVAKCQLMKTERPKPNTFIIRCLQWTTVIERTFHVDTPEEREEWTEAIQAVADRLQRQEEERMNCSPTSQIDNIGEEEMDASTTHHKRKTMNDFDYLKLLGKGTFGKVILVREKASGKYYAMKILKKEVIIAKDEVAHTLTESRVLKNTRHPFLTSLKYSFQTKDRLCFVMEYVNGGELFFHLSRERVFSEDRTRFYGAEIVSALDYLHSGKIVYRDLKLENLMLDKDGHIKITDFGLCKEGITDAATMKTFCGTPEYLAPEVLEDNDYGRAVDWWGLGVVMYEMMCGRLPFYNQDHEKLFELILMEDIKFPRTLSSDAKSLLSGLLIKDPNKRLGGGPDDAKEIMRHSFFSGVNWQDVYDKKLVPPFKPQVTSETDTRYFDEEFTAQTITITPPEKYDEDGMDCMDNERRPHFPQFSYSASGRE

`COc1cc(C(=O)N2CCC(N3CCN(C)CC3)CC2)ccc1Nc1ncc2c(n1)N(C)c1ccccc1C(=O)N2C` was tested, and the kinase still bound, per cent of control (ACVR2A (human)) was 100%, the kinase still bound, per cent of control (ADCK4 (human)) was 94% and the kinase still bound, per cent of control (AKT3 (human)) was 100%. It also gave a kinase still bound, per cent of control (BRSK2 (human)) of 64%, a kinase still bound, per cent of control (CSNK1E (human)) of 95% and a kinase still bound, per cent of control (CSNK1G2 (human)) of 100%. The Kd (DCLK1 (human)) was 0.005 µM, the kinase still bound, per cent of control (DCLK1 (human); compound 10.0 µM) was 4.2% and the kinase still bound, per cent of control (DYRK1B (human)) was 94%. It also gave a kinase still bound, per cent of control (DYRK2 (human)) of 76%, a kinase still bound, per cent of control [1] of 84% and a kinase still bound, per cent of control (EPHA3 (human)) of 100%. For the same compound, the kinase still bound, per cent of control (EPHB1 (human)) was 98%, the kinase still bound, per cent of control [2] was 73% and the kinase still bound, per cent of control (INSRR (human)) was 97%. It also gave a kinase still bound, per cent of control (ITK (human)) of 82%, a kinase still bound, per cent of control [3] of 70% and a kinase still bound, per cent of control (MAP4K1 (human)) of 100%. It also gave a kinase still bound, per cent of control (MAPK12 (human)) of 76%, a kinase still bound, per cent of control (MARK1 (human)) of 87% and a kinase still bound, per cent of control (MYLK4 (human)) of 80%. The kinase still bound, per cent of control (NIM1 (human)) was 100%, the kinase still bound, per cent of control (PAK1 (human)) was 95% and the kinase still bound, per cent of control (PAK7 (human)) was 96%. It also gave a kinase still bound, per cent of control (PKN1 (human)) of 100%, a kinase still bound, per cent of control (RIOK2 (human)) of 100% and a kinase still bound, per cent of control (ROCK2 (human)) of 87%. It also gave a kinase still bound, per cent of control (ROS1 (human)) of 12%, a kinase still bound, per cent of control (SRPK1 (human)) of 94% and a kinase still bound, per cent of control (SRPK3 (human)) of 72%. The Kd (TNK1 (human)) was 0.023 µM, the kinase still bound, per cent of control (TNK1 (human); compound 10.0 µM) was 2.8% and the kinase still bound, per cent of control (TNNI3K (human)) was 100%. The kinase still bound, per cent of control (WEE1 (human)) was 100%, the IC50 (AURKA (human)) was 0.87 µM and the IC50 (AURKB (human)) was 5.92 µM. The IC50 (CHEK2 (human)) was 6.51 µM, the IC50 (DCLK2 (human)) was 45 µM and the IC50 (LRRK2 (human)) was 0.003 µM. For the same compound, the IC50 (MKNK2 (human)) was 4.47 µM, the IC50 (MYLK (human)) was 8.21 µM and the IC50 (NUAK1 (human)) was 3.67 µM. The IC50 (PLK1 (human)) was 983 µM.
